Data on two molecules can be found in PMC11343806 (Journal of Biological Inorganic Chemistry, 2024).

For series [1], the system named is Vero E6 non-tumorigenic epithelial kidney cells. Put plainly: Antiproliferative assay (crystal violet). Conditions: 72 h exposure; ± standard deviation, n = 2–4; read-out: IC50, antiproliferative effects, Vero E6. In kind it is cell-based, African green monkey. Here is the method:
(§1) The antiproliferative effects were determined according to a previously published procedure. A volume of 100 µL of cell suspension of A549 cells, MDA-MB-231, HT-29 or Vero E6 cells was transferred into the wells of a 96-well plates and incubated at 37 °C under 5% CO2 for 72 h. […] The results were calculated as the mean values of three independent experiments, unless stated otherwise.

For series [2], the system named is aerobic Gram-positive and Gram-negative pathogenic bacteria strains. The series is described as follows: MIC, summary over the panel of aerobic bacteria. The conditions noted are these: for MIC values against Gram-positive strains: MRSA and E. faecium, except for 1c in MRSA; for activity against Gram-negative strains (in words): aerobic conditions. In kind it is cell-based. Here is the method:
(§2) The following strains were used and maintained at 37 °C in MHB (21 g/L Müller Hinton, pH 7.4) or TSY (30 g/L trypticase soy broth, 3 g/L yeast extract, pH 7.0–7.2) medium. Acinetobacter baumannii (DSM 30007, ATCC 19606) in MHB, Escherichia coli (DSM1116, ATCC 9637) in TSY, Klebsiella pneumoniae (DSM 11678, ATCC33495) in MHB, Pseudomonas aeruginosa PA7 (DSM 24068) in MHB, Enterococcus faecium (DSM 20477, ATCC 19434) in TSY, Staphylococcus aureus MRSA (DSM 11822, ICB 25701) in TSY). Minimum inhibitory concentration (MIC) values were determined following a standardized protocol in broth dilution assays. […] Starting inocula of 2–8 × 10^5 colony-forming units per ml in MHB or TSY media at 37 °C were used, and serial dilutions were carried out in 384-well microtiter plates in duplicate. […] The MIC values for the tested compounds were determined in three independent experiments by a curve-fitting procedure using the GraphPad Prism software (Graphpad Software, Inc.).

Series [3] deals with MDA-MB-231 breast cancer cells. The series is described as follows: Antiproliferative assay (crystal violet). Format: cell-based, human. Conditions: 96 h exposure; ± standard deviation, n = 2–4; read-out: IC50, antiproliferative effects, MDA-MB-231. Here is the method: as §1
Series [4] has as its system HT-29 colon carcinoma cells. Put plainly: Antiproliferative assay (crystal violet). The conditions noted are these: 72 h exposure; ± standard deviation, n = 2–4; read-out: IC50, antiproliferative effects, HT-29. Format: cell-based, human. Here is the method: as §1
Series [5] concerns A-549 lung cancer cells. Put plainly: Antiproliferative assay (crystal violet). In kind it is cell-based, human. Conditions: 72 h exposure; ± standard deviation, n = 2–4; read-out: IC50, antiproliferative effects, A-549. Here is the method: as §1
Series [6] can be described thus: Solubility observations.
In series [7] the test system is Escherichia coli (DSM1116, ATCC 9637). Put plainly: MIC broth dilution, aerobic bacteria. Conditions: 20 h at 37 °C, ± standard error, n ≥ 3. Format: cell-based. Here is the method:
as §2
In general terms: Broth dilution looks for growth in wells or tubes with falling amounts of substance.

Series [8] concerns Klebsiella pneumoniae (DSM 11678, ATCC33495). The series is described as follows: MIC broth dilution, aerobic bacteria. In kind it is cell-based. Conditions: 20 h at 37 °C, ± standard error, n ≥ 3, read-out: MIC, K. pneumoniae. Here is the method: as §2
Series [9] concerns Pseudomonas aeruginosa PA7 (DSM 24068). The series is described as follows: MIC broth dilution, aerobic bacteria. In kind it is cell-based. Conditions: 20 h at 37 °C, ± standard error, n ≥ 3, read-out: MIC, P.aeruginosa. Here is the method: as §2
Series [10] relates to Acinetobacter baumannii (DSM 30007, ATCC 19606). The series is described as follows: MIC broth dilution, aerobic bacteria. In kind it is cell-based. Conditions: 20 h at 37 °C, ± standard error, n ≥ 3. Here is the method:
as §2

In series [11] the test system is Staphylococcus aureus MRSA (DSM 11822, ICB 25701). The series is described as follows: MIC broth dilution, aerobic bacteria. In kind it is cell-based. Conditions: 20 h at 37 °C, ± standard error, n ≥ 3. Here is the method:
as §2

In series [12] the test system is Enterococcus faecium (DSM 20477, ATCC 19434). Put plainly: MIC broth dilution, aerobic bacteria. Format: cell-based. The conditions noted are these: 20 h at 37 °C, ± standard error, n ≥ 3. Here is the method:
as §2

Series [13] has as its system A-549, HT-29, MDA-MB-231 and Vero E6 cells. Put plainly: Antiproliferative assay, summary over all cell lines. The conditions noted are these: all four cell lines; for 2c except MDA-MB-231; read-out: IC50 values, antiproliferative effects, all cell lines. In kind it is cell-based. Here is the method:
as §1

For series [14], the target named is T1, bacterial TrxR from E. coli (Escherichia coli, UniProt P0A9P4).
T1 construct: purchased Sigma-Aldrich
Put plainly: Inhibition of bacterial TrxR (E. coli), DTNB/5-TNB assay. Format: biochemical. The conditions noted are these: purified enzyme, 75 min incubation at 25 °C; means and standard deviations. Here is the method: The TrxR (E.coli) inhibition assay was performed according to a previously published procedure. It is partly based on the procedure developed by Lu et al.[35] and detects the formation of 5-TNB (5-thionitrobenzoic acid). Solutions of E. coli TrxR (35.4 U/mL) and of its substrate thioredoxin (Trx) E. coli (156 µg/mL) (both purchased from Sigma-Aldrich and diluted with distilled water) and fresh stock solutions of the test compounds (in DMF) were prepared (1c was administered as suspension). TE buffer (Tris–HCl 50 mM, EDTA 1 mM, pH 7.5) containing graded concentrations of the respective compounds (20 µL) or buffer without compounds (20 µL, as control) were mixed with TrxR solution (10 µL), Trx solution (10 µL), and a solution of NADPH (200 µM) in TE buffer (100 µL) in a well on a 96-well plate. As blank solution, 200 µM NADPH in TE buffer (100 µL) mixed with a DMF/buffer mixture (40 µL) was used (final concentrations of DMF: 0.5% v/v). The solutions on the 96-well plate were incubated for 75 min at 25 °C with moderate shaking. A volume of 100 µL of a reaction mixture (TE buffer containing 200 µM NADPH and 5 mM DTNB) was added to each well to initiate the reaction. After thorough mixing, the formation of 5-TNB was monitored by a microplate reader at 405 nm in 35 s intervals (10 measurements). The values were corrected by subtraction of the values for the blank solution. The increase in concentration of 5-TNB followed a linear trend (r^2 ≥ 0.990) and the enzymatic activities were calculated as the gradients (increase in absorbance per second) thereof. Absence of interference with the assay components was confirmed by a negative control experiment for each test compound. The highest test compound concentration was used and the enzyme solution was replaced by TE buffer for this purpose. The IC50 values were calculated as the concentration of the compound decreasing the enzymatic activity of the positive control by 50% and are presented as the means and standard deviations of independent repeated experiments.

In series [15] the test system is C. difficile strain 1296^ T (DSM 1296), metronidazole-sensitive. Put plainly: Antibacterial effects against C. difficile (anaerobic growth curves, OD600). In kind it is cell-based, Clostridioides difficile. The conditions noted are these: strain 1296T. Here is the method:
(§3) (provided by Ulrich Nübel, DSMZ Braunschweig) were maintained in prereduced BHIS medium (37 g/L BHI, oxoid, 5% yeast extract, 1% L-cysteine) in a Coy-Laboratories anaerobic chamber (85% N2, 10% CO2, 5% H2) at 37 °C. Freshly prepared cultures were incubated until the exponential growth phase (OD600 = 0.2–0.4) and were adjusted to 1 × 10^6 cfu/mL before inoculation. The test compounds were dissolved in DMSO and by two-fold dilution steps concentrations in the range from 200 µM to 0.39 µM in BIHS medium were obtained. The solutions (100µL) were added to 100 µL of a diluted C. difficile culture (total volume: 200 µL in BIHS, 5 × 10^5 C. difficile, 100–0.195 µM test compound per well). The OD600-values over a period of 48 h were measured with a LogPhase 600 4-plate reader (BioTek) and compared with blank BHIS.

In series [16] the test system is C. difficile strain VPI10463 (ATCC 43255), metronidazole-sensitive. The series is described as above. Format: cell-based, Clostridioides difficile. Here is the method:
as §3

Series [17] relates to C. difficile strain IB136 (NCTC 14385), metronidazole-resistant. Described as above. Format: cell-based, Clostridioides difficile. Here is the method:
as §3

Each structure is given as a SMILES string.

T1 sequence (P0A9P4 whole entry): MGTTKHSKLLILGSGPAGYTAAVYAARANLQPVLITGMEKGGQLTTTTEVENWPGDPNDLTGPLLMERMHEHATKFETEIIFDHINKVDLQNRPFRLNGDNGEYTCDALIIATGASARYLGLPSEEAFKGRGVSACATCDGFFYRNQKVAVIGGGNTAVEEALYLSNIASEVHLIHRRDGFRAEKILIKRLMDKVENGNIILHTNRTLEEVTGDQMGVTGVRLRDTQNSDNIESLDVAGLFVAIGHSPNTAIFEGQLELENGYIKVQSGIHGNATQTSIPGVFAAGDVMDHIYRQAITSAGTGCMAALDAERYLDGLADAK

Turning to `CCn1[c](=[Au][Cl])n(CC)c2cc(C(=O)OCCn3c([N+](=O)[O-])cnc3C)ccc21` [Compound 1c, Chlorido-(1,3-diethyl-5-((2-(2-methyl-5-nitroimidazol-1-yl)ethoxy)carbonyl)benzimidazol-2-ylidene)gold(I)], the IC50 (usually the concentration needed to halve the response being measured) was above 100 µM in series [1]; above 100 µM in series [3]; above 100 µM in [4]; above 100 µM in series [5]; above 60 µM in series [13]; 0.145 ± 0.038 µM in series [14]. Further, the “MIC values against Gram-positive strains” value in series [2] was in the range of 37 to 44 µM. Besides, the “activity against Gram-negative strains (in words)” value in series [2] was “inactive”. The “solubility in organic solvents” value in series [6] is given as “limited solubility in organic solvents”. The MIC in series [7], in series [8], in [9] and in series [10] was above 106.0 µM each time. The “MIC, MRSA” value in series [11] is 106.0 ± 0.0 µM. The “MIC, E. faecium” value in series [12] was determined as 44.2 ± 15.3 µM.

For `Cc1ncc([N+](=O)[O-])n1CCOC(=O)Cn1[c](=[Au][Cl])n(C)c2ccccc21` [Compound 2c, Chlorido-(1-methyl-3-(2-(2-(2-methyl-5-nitroimidazol-1-yl)ethoxy)-2-oxoethyl)-benzimidazol-2-yliden)gold(I)], the IC50 in [1] was above 95 µM; in series [3], 31.8 ± 4.1 µM; in series [4] it was 80.7 ± 5.9 µM; in series [5] it was 81.9 ± 2.8 µM; in [13] it was above 60 µM; in series [14] it was 0.175 ± 0.017 µM. Also, in series [2], the “MIC values against Gram-positive strains” value lay within 37 to 44 µM. In addition, in series [2], the “activity against Gram-negative strains (in words)” value is “inactive”. The “solubility in organic solvents” value in series [6] was “soluble in most organic solvents”. For the same molecule, the MIC in series [8], in series [9] and in series [10] was above 111.2 µM throughout. For the same molecule, the “MIC, MRSA” value in [11] was 37.1 ± 16.0 µM. In addition, the “MIC, E. faecium” value in series [12] was 43.3 ± 16.0 µM. The “antibacterial effect at 6.25 µM” value in [15] (6.25 µM, recovery of growth after extended exposure) is recorded as “effective inhibitors”; in [16] (strain VPI10463, 6.25 µM, recovery of growth after extended exposure) it was “effective inhibitors”; in series [17] (resistant strain IB136, 6.25 µM), “strong effects with recovery of bacterial proliferation”. Moreover, the “concentration leading to a complete block of bacterial growth without recovery” value is reported as “blocked bacterial growth at the same concentration” in series [15] (up to 100 µM, 48 h); “blocked bacterial growth at the same concentration” in [16] (strain VPI10463, up to 100 µM, 48 h); “blocked bacterial growth at the same concentration” in series [17] (metronidazole-resistant strain IB136, up to 100 µM, 48 h).
